Patent US20230302131A1, “MPC INHIBITION FOR PRODUCING T-CELLS WITH A MEMORY PHENOTYPE” (UNIVERSITÉ DE LAUSANNE, priority 2020, published 2023)

Tests used:
OT1 CD8 T cells [1] = test: In vitro activation of OT1 splenocytes with N4 peptide and IL-2, CD62L by flow cytometry; type: cell-based, mouse
Procedure: To evaluate the effects of MPC inhibition on T cell differentiation, OT1 splenocytes were cultured in the presence of 1 μg/ml ovalbumin-derived N4 (SIINFEKL) peptide, 100 IU/ml recombinant human IL-2 (rhIL-2) and the MPC inhibitor (MPCi) UK5099 at 75 μM or control DMSO for 3 days. The inhibitor or DMSO was then washed away and the cells were cultured for 4 more days in the presence of 100 IU/ml IL-2 and 10 ng/ml rhIL-7 (FIG. 1A). […] Thus, the increase in the memory markers upon MPCi in vitro treatment occurs at the transcriptional level.
OT1 splenocytes were cultured for 3 days at a concentration of 10^6 cells per mL in RPMI medium (Gibco 61870-01) supplemented with 10% FBS, (Gibco 10270-106), 1% Penicillin/Streptomycin (Gibco 15070-063), 50 μM β-mercaptoethanol, 1% HEPES (Gibco 15630-080), 1× Non-essential amino acids (Gibco 11140-035), 1% L-glutamine (Gibco 25030-081), 1 mM Sodium Pyruvate (Gibco 11360-039). Cells were additionally supplemented with hIL-2 100 U/ml (Glaxo-IMB), ovalbumin N4 peptide (SIINFEKL) 1 μg/ml and either with 75 μM UK5099 (Sigma Aldrich) or with their solvent DMSO as a control. At day 3, splenocytes were collected, washed and split, and cells were cultured for 4 additional days with 100 U/ml hIL-2 and hIL-7 (Peprotech 200-07) supplemented either with 75 μM UK5099 (Sigma Aldrich) or DMSO. […]

[2] = tested on: transferred OT1 cells in LM-OVA infected mice; test: In vivo Listeria-Ova infection model after adoptive transfer of pre-treated OT1 cells; parameters: species or system mouse
Text: In order to evaluate whether this memory phenotype is maintained in vivo, 10^5 MPCi- or DMSO-treated OT1 cells were intravenously injected in healthy mice. Twenty-four hours after cell transfer, the mice were infected with a sub-lethal dose of ovalbumine-expressing Listeria monocytogenes (LM-OVA, 2000 CFU i.v.) (FIG. 1H). […] Consequently, 28 days after LM-OVA infection, during the memory phase of the immune reaction, the proportion of central memory T cells (CD44+CD62L+) among the transferred cells in the blood was larger in mice that received cells pre-treated with MPCi (FIG. 1K). Importantly, the effects of the MPC inhibitor were target specific, since an increase in memory T cell differentiation could also be observed when MPC1 KO T cells were transferred in this Listeria model (FIG. 1L-N). In summary, MPCi-treated cells display a consistent memory phenotype upon in vivo transfer in an infection model.
Activated CD45.1+OT-1 splenocytes were culture in vitro for 7 days as described above, collected and purified on a Ficoll gradient, allowing to separate dead and live splenocytes. Live splenocytes were counted with Trypan blue stain 0.4%. 100′000 live splenocytes were transferred into CD45.2+ host mice by tail vein injection.
Recombinant bacteria Listeria monocytogenes deficient for actA and expressing the ovalbumin (Ova) peptide SIINFEKL were expanded and tittered. Optical density measured with a spectrophotometer was used to determine bacterial concentration and 2000 CFU were administered in each mouse by tail vein injection, […] after adoptive cell transfer. Blood samples were collected and processed for surface markers and cytokine production analyses.
Antibody panels for blood analyses contained: CD8-PE-texas-Red, CD45.1-Pacific blue, CD45.2-FITC, CD127-PE, KLRG1-PE-Cy7, CD62L-APC, CD44-APC-Cy7, and CD27-PerCP-Cy5.5.

OT1 CD8 T cells [3] = test: ATAC sequencing of OT1 CD8 T cells; type: cell-based, mouse; details: ATAC-seq after 3 days of culture; vs DMSO
Text: Mechanistically, it was hypothesized by the inventors that epigenetic processes might underlie the observed long-term memory phenotype and anti-tumor activity upon metabolic intervention with MPCi. […] Since acetyl-CoA is the acetyl donor for the acetylation of proteins, amongst which also histones, histone post-translational modifications were examined that are known to make chromatin accessible to transcription factors, a characteristic of memory T cells. […] These are marks known to open chromatin and make it accessible for transcription factor docking. […] Amongst those were Sell, Tcf7 and Ccr7, thereby correlating accessible chromatin with increased mRNA copies (FIG. 3E and see above).
After 3 days of OT1 CD8 T cell culture, 5×10^4 cells were collected and transposed as described before (Buenrostro et al, Transposition of native chromatin for multimodal regulatory analysis and personal epigenomics. Nat Methods. 2013 December; 10(12): 1213-1218.). Amplified transposed fragments were sequenced on an Illumina HiSeq platform.
Computations of the analysis were performed at the Vital-IT Center for high-performance computing of the SIB Swiss Institute of Bioinformatics. Sequencing reads contained in fastq files were aligned to the Mouse mm10 reference genome using Bowtie2 v.2.3.4.1, and alignment files were manipulated with samtools v.1.8. Peak calling was performed with Macs2 v.2.1.1. […]

## N#CC(=Cc1cn(-c2ccccc2)c2ccccc12)C(=O)O [UK5099, 2-cyano-3-(1-phenyl-1H-indol-3-yl)-2-propenoic acid]
OT1 CD8 T cells [1]; 75 μM d0-d3, then washed away, flow cytometry day 7, compared to DMSO
  surface expression of the central memory marker CD62L: strong increase
OT1 CD8 T cells [1]; MPCi treatment continued between d3 and d7
  surface CD62L expression at day 7, continued treatment: even more pronounced than a d0-d3 treatment only
[2]; 28 days after LM-OVA infection, vs DMSO
  proportion of central memory T cells (CD44+CD62L+) among the transferred cells in the blood: larger
[2]; day 7 post-LM-OVA, blood, pre-treated OT1 cells vs DMSO
  frequency of memory precursor cells (CD127+, KLRG1low): significantly increased
[2]; weekly bleeding, peak of immune response and contraction phase, cells pre-treated in vitro
  frequency of the transferred cells in blood: did not reveal significant differences
OT1 CD8 T cells [3]
  genes associated with more accessible chromatin: 981 genes
